Results: US9062078B2, “Substituted 7-azabicyles and their use as orexin receptor modulators” (priority 2013, dated 2015)
Where two headings read alike, the source gives them in different places.

How the values were obtained:
human orexin 2 receptor = human orexin 2 receptor (Homo sapiens (Human), UniProt O43614); assay: Human orexin 2 receptor radioligand binding (competitive, [3H]-EMPA, HEK293 cell preparations)
rat orexin 1 receptor = rat orexin 1 receptor (Rattus norvegicus, UniProt P56718); assay: Rat orexin 1 receptor radioligand binding (competitive, [3H]-SB674042, HEK293 cell preparations); conditions: rat orexin 1 receptor, [3H]-SB674042 competition binding; read-out: rOX1 Ki (nm)
[1] = human orexin 2 receptor, [3H]-EMPA competition binding, read-out: hOX2 Ki (nm)

Chain of human orexin 2 receptor (O43614 whole entry): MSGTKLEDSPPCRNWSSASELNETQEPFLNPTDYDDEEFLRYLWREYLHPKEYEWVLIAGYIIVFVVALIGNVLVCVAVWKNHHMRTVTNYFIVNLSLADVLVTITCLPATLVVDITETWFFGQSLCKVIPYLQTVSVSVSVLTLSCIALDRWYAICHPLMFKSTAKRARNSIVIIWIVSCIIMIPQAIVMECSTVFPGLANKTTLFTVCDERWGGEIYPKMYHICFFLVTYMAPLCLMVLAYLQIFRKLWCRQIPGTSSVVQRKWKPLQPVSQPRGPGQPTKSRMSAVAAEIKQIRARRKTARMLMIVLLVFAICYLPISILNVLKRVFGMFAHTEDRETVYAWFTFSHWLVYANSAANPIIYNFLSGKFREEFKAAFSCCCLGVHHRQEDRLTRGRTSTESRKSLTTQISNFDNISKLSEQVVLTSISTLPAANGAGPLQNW

O=C(c1ccccc1-n1nccn1)N1C2CCC1C(Nc1cccc(C(F)(F)F)n1)C2 (racemic) [Example 209, (±)-(2-(2H-1,2,3-triazol-2-yl)phenyl)(2-(6-(trifluoromethyl)pyridin-2-yl)amino)-7-azabicyclo[2.2.1]heptan-7-yl)methanone]
Ki (human orexin 2 receptor; [1]): 736 nM | Ki (rat orexin 1 receptor): 1100 nM

O=C(c1cccc(F)c1-c1ncccn1)N1[C@@H]2CC[C@H]1[C@H](Nc1nccn3c(C(F)(F)F)nnc13)C2 [Example 274]
Ki (human orexin 2 receptor; [1]): 2560 nM | Ki (rat orexin 1 receptor): > 10000 nM

Cc1ccc(-n2nccn2)c(C(=O)N2C3CCC2C(COc2cnccn2)C3)n1 (racemic) [Example 60, (±)-(6-methyl-3-(2H-1,2,3-triazol-2-yl)pyridin-2-yl)(2-((pyrazin-2-yloxy)methyl)-7-azabicyclo[2.2.1]heptan-7-yl)methanone]
Ki (human orexin 2 receptor; hOX2 Ki (nm)): > 10000 nM | Ki (rat orexin 1 receptor): 7800 nM

Cc1ccc(C(=O)N2C3CCC2C(Nc2ccc(C(F)(F)F)cn2)C3)c(-n2nccn2)n1 (racemic) [Example 189, (±)-(6-methyl-2-(2H-1,2,3-triazol-2-yl)pyridin-3-yl)(2-(5-(trifluoromethyl)pyridin-2-yl)amino)-7-azabicyclo[2.2.1]heptan-7-yl)methanone]
Ki (human orexin 2 receptor; hOX2 Ki (nm)): 1500 nM | Ki (rat orexin 1 receptor): 766 nM

O=C(c1cccc(F)c1-c1ncccn1)N1C2CCC1C(Oc1ncc(C(F)(F)F)cn1)C2 (racemic) [Example 286, (±)-(3-fluoro-2-(pyrimidin-2-yl)phenyl)(2-((5-(trifluoromethyl)pyrimidin-2-yl)oxy)-7-azabicyclo[2.2.1]heptan-7-yl)methanone]
Ki (human orexin 2 receptor; [1]): > 10000 nM | Ki (rat orexin 1 receptor): > 10000 nM

COc1ccc(NC2CC3CCC2N3C(=O)c2ccccc2-n2nccn2)nc1 (racemic) [Example 213, (±)-(2-(2H-1,2,3-triazol-2-yl)phenyl)(2-((5-methoxypyridin-2-yl)amino)-7-azabicyclo[2.2.1]heptan-7-yl)methanone]
Ki (human orexin 2 receptor; [1]): 7500 nM | Ki (rat orexin 1 receptor): 2800 nM

Cc1ccc(-c2ncco2)c(C(=O)N2C3CCC2C(COc2ncc(F)cn2)C3)n1 (racemic) [Example 100, (±)-(2-(((5-fluoropyrimidin-2-yl)oxy)methyl)-7-azabicyclo[2.2.1]heptan-7-yl)(6-methyl-3-(oxazol-2-yl)pyridin-2-yl)methanone]
Ki (human orexin 2 receptor; [1]): 1800 nM | Ki (rat orexin 1 receptor): 950 nM

CCOc1ccc(C)nc1C(=O)N1C2CCC1C(Nc1ccc(Br)cn1)C2 (racemic) [Example 219, (±)-(2-((5-bromopyridin-2-yl)amino)-7-azabicyclo[2.2.1]heptan-7-yl)(3-ethoxy-6-methylpyridin-2-yl)methanone]
Ki (human orexin 2 receptor; [1]): 1700 nM | Ki (rat orexin 1 receptor): 257 nM

CN(c1cnc(C(F)(F)F)cn1)[C@@H]1C[C@H]2CC[C@@H]1N2C(=O)c1cccc(F)c1-c1ncccn1 [Example 282, (3-fluoro-2-(pyrimidin-2-yl)phenyl)((1S,2R,4R)-2-(methyl(5-(trifluoromethyl)pyrazin-2-yl)amino)-7-azabicyclo[2.2.1]heptan-7-yl)methanone]
Ki (human orexin 2 receptor; [1]): > 10000 nM | Ki (rat orexin 1 receptor): 486 nM

Cc1ccc(N2CCN(C)CC2)c(C(=O)N2C3CCC2C(COc2ccccn2)C3)n1 (racemic) [Example 85, (±)-(6-methyl-3-(4-methylpiperazin-1-yl)pyridin-2-yl)(2-((pyridin-2-yloxy)methyl)-7-azabicyclo[2.2.1]heptan-7-yl)methanone]
Ki (human orexin 2 receptor; [1]): > 10000 nM | Ki (rat orexin 1 receptor): > 10000 nM

Cc1ccc(C(=O)N2[C@@H]3CC[C@H]2[C@H](Nc2cnc(C(F)(F)F)cn2)C3)c(-n2nccn2)n1 [Example 247, (6-methyl-2-(2H-1,2,3-triazol-2-yl)pyridin-3-yl)((1S,2R,4R)-2-((5-(trifluoromethyl)pyrazin-2-yl)amino)-7-azabicyclo[2.2.1]heptan-7-yl)methanone]
Ki (human orexin 2 receptor; [1]): 1130 nM | Ki (rat orexin 1 receptor): 420 nM

Cc1ccc(-n2nccn2)c(C(=O)N2C3CCC2C(COc2cccnn2)C3)n1 (racemic) [Example 53, (±)-(6-methyl-3-(2H-1,2,3-triazol-2-yl)pyridin-2-yl)(2-((pyridazin-3-yloxy)methyl)-7-azabicyclo[2.2.1]heptan-7-yl)methanone]
Ki (human orexin 2 receptor; hOX2 Ki (nm)): > 10000 nM | Ki (rat orexin 1 receptor): 2200 nM
